From patent US9244346B2, “Negative-type photosensitive resin composition, pattern forming method, cured film, insulating film, color filter, and display device” (TOKYO OHKA KOGYO CO., LTD., priority 2011, dated 2016)

Legend:
[1] = wavelength (λmax) at absorption spectrum peak and gram absorption coefficient at λmax; assay type: physicochemical; conditions: for λmax: wavelength at absorption spectrum peak
[2] = solubility to propylene glycol monomethyl ether acetate (PM) and cyclohexanone (AN); conditions: for Solubility to Solvent AN: cyclohexanone; for Solubility to Solvent PM: propylene glycol monomethyl ether acetate

SMILES | Gram Absorption Coefficient at λmax [1] | λmax [1] | Solubility to Solvent AN [2] | Solubility to Solvent PM [2]
COc1ccccc1/C=C/C(=O)N1CCCCC1 [Comparative Compound 2, reference compound] | 76 | 275 nm | <1 mass % | <1 mass %
CCO[Si](C)(CCCN)OCC [Comparative Compound 6, reference compound] | 143 | 212 nm | >50 mass % | >50 mass %
CCN(CC)C(=O)/C=C/c1ccc(OC)cc1 [Compound 1] | 90 | 309 nm | >50 mass % | >50 mass %
COc1ccc(/C=C/C(=O)Nc2ccccc2)cc1 [Compound 2] | 117 | 317 nm | >50 mass % | >50 mass %
COc1ccc(/C=C/C(=O)n2ccnc2)cc1 [Compound 3] | 81 | 293 nm | >50 mass % | >50 mass %
COc1ccc(/C=C/C(=O)N2CCOCC2)cc1 [Compound 4] | 79 | 310 nm |  | 
COc1ccc(/C=C/C(=O)n2ccnc2)c([N+](=O)[O-])c1 [Compound 5] | 121 | 332 nm |  | 
COc1ccc(/C=C/C(=O)n2ccnc2)cc1[N+](=O)[O-] [Compound 6] | 86 | 344 nm |  | 
COc1ccc(/C=C(\C)C(=O)n2ccnc2)c([N+](=O)[O-])c1 [Compound 7] | 137 | 339 nm | >50 mass % | >50 mass %
COc1ccc(/C=C(\C)C(=O)n2ccnc2)cc1[N+](=O)[O-] [Compound 8] | 98 | 351 nm |  | 
CCN(CC)C(=O)/C=C/c1ccc(OC)cc1[N+](=O)[O-] [Compound 9] | 102 | 342 nm | >50 mass % | >50 mass %
CCN(CC)C(=O)/C=C/c1ccc(OC)c([N+](=O)[O-])c1 [Compound 10] | 119 | 354 nm | >50 mass % | >50 mass %
CCN(CC)C(=O)/C(C)=C/c1ccc(OC)cc1[N+](=O)[O-] [Compound 11] | 107 | 349 nm | >50 mass % | >50 mass %
CCN(CC)C(=O)/C(C)=C/c1ccc(OC)c([N+](=O)[O-])c1 [Compound 12] | 127 | 361 nm | >50 mass % | >50 mass %
COc1ccc(/C=C/C(=O)N2CCCCC2)c([N+](=O)[O-])c1 [Compound 13] | 87 | 313 nm | >50 mass % | >50 mass %
COc1ccc(/C=C/C(=O)N2CCCCC2)cc1[N+](=O)[O-] [Compound 14] | 94 | 322 nm | >50 mass % | >50 mass %
COc1ccc(/C=C(\C)C(=O)N2CCCCC2)c([N+](=O)[O-])c1 [Compound 15] | 92 | 313 nm | >50 mass % | >50 mass %
COc1ccc(/C=C(\C)C(=O)N2CCCCC2)cc1[N+](=O)[O-] [Compound 16] | 105 | 323 nm | >50 mass % | >50 mass %
COc1ccc(C=CC(=O)N2CCCCC2)cc1 [Compound 17] | 74 | 281 nm | >50 mass % | >50 mass %
COc1ccc(C=C(C)C(=O)n2ccnc2)cc1 [Compound 18] | 84 | 301 nm |  | 
CCN(CC)C(=O)C(C)=Cc1ccc(OC)cc1 [Compound 19] | 86 | 318 nm | >50 mass % | >50 mass %
CCN(CC)C(=O)C=Cc1ccc(OC)cc1O [compound 7, reference compound] | 72 | 304 nm | >50 mass % | >50 mass %
COc1ccc(C=CC(=O)n2ccnc2)c(O)c1 [compound 9, reference compound] | 65 | 290 nm | >50 mass % | >50 mass %
